# Measured values reported in US9505730B2, “Mineralocorticoid receptor antagonists” (Merck Sharp & Dohme Corp., priority 2011, dated 2016).
# Target: T1, full-length human Mineralocorticoid Receptor (MR) (Homo sapiens, UniProt P08235)
# T1 construct: host or cells: PathHunter CHO-K1 cells
# T1 sequence (P08235 1-984): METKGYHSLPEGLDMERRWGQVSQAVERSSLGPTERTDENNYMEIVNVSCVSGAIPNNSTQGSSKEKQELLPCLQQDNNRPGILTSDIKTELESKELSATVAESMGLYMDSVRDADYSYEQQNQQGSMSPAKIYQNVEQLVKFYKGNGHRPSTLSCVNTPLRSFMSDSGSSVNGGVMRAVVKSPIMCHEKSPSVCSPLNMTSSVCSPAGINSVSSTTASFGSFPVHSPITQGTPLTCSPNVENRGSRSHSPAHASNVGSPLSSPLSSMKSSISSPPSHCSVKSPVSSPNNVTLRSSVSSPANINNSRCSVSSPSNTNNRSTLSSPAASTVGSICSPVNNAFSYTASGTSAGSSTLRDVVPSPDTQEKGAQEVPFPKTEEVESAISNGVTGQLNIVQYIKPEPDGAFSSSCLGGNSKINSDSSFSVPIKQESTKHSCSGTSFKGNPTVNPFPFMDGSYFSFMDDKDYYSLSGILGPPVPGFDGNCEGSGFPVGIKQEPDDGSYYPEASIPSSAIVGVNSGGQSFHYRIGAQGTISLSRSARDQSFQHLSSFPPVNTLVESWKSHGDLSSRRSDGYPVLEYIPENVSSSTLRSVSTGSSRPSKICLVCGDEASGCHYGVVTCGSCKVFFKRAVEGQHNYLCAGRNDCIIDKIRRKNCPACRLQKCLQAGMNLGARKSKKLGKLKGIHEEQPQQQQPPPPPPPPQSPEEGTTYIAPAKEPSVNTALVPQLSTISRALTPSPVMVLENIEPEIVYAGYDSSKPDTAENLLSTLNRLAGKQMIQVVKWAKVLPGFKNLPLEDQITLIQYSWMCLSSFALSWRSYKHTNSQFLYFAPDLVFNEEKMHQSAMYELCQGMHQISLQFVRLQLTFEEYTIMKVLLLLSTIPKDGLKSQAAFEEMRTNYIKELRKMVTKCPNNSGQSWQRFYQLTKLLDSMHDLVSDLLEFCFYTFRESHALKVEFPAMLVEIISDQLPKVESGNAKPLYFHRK
# Assay: human MR NH Pro assay (PathHunter Protein:Protein interaction assay, MR antagonism)
# Type: cell-based
# Details: PathHunter CHO-K1 cells overexpressing human MR; aldosterone 0.3 nM; 6 hours at 37° C.; luminescence; read-out: IC50 rating
# Protocol: The activity of the compounds of the present invention regarding mineralocorticoid receptor antagonism was evaluated using the following assay.
# Assessment of Mr Potency in Hmr Nh Pro Assay
# The human MR NH Pro assay is a commercially available PathHunter™ Protein: Protein interaction assay (DiscoveRx; http://www.discoverx.com/nhrs/prod-nhrs.php) that measures the ability of compounds to antagonize full-length human Mineralocorticoid Receptor (MR) binding to a coactivator peptide. PathHunter™ CHO-K1 cells that overexpress human MR (Cat #93-0456C2, Lot No: 09B0913) were cultured in growth media (F12K w/Glutamine and phenol red (Gibco 11765-047) supplemented with 10% HI FBS (Gibco 16000); 0.25 mg/ml Hygromycin in PBS (Invitrogen 10687-010, 50 mg/ml); 100 I.U./mL and 100 μg/mL Pen/Strep (Gibco 15140-122); 0.6 mg/mL Geneticin).
# Compounds were assessed for MR antagonist activity by incubating the cells with a titrating dose of compound in F12K w/Glutamine and phenol red culture media (Invitrogen 11765-047) supplemented with 1% Charcoal/Dextran Treated FBS (Hyclone #SH30068.01) and aldosterone (0.3 nM) for 6 hours at 37° C.
# • F12K w/Glutamine and phenol red (Gibco 11765-047) • 10% HI FBS (Gibco 16000) • 0.25 mg/ml Hygromycin in PBS (Invitrogen 10687-010, 50 mg/ml) • 100 I.U./mL and 100 μg/mL Pen/Strep (Gibco 15140-122) • 0.6 mg/mL Geneticin (Gibco 10131, 50 mg/ml) 2. Assay media: • F12K w/Glutamine and phenol red (Invitrogen 11765-047) • 1% Charcoal/Dextran Treated FBS (Hyclone #SH30068.01) 3. 3× PathHunter Detection Reagents (Cat#93-0001) (need ˜6 ml/plate). […] Control Agonist: Aldosterone: Sigma cat #A9477 • Prepare stock solution—10 μM in DMSO kept at −20 C • for assay, dilute in assay media to 1.8 or 6 nM (6× of final concentration=about 0.3 nM to about 1.0 nM) 5. Cell line: PathHunter CHO-K1 MR cells Cat #93-0456C2, Lot No: 09B0913, from operation liquid nitrogen stock. 6. Control Antagonist: Spironolactone: Sigma #S-3378 and Eplerenone Sigma #107724-20-9 (10 mM stock concentration also prepared in DMSO and stored at −20° C.). Methods: Assay Set up and Calculations: • 1. Cells were grown in F12+FBS+Hygromycin+pen/strep+Genetin. • 2. Cells were collected with 0.05% trypsin and the cell suspension was spun and resuspended in a volume of F12+1.5% CD-FBS and counted. • 3. The cells were resuspended to 4×10^5 cells/mL. • 4. Cells were (25 μL/well) added to the wells of a 384 well plate. • 5. The plate was then incubated at 37° C. over night in a humidified incubator with 5% CO2. • 6. Test compounds were titrated starting at 4.4 mM, 10-point titration in 1:3 dilution. • 7. Aldosterone was diluted in assay media to 1.8 nM or 6 nM from 10 μM stock (final concentration to be about 0.3 nM to about 1.0 nM). Protocol for 384 well plate format: 6 hr treatment: • 1. Plated 10K exponentially growing cells/well (25 μL) resuspended in assay media to each well using the Multidrop (Thermo Electron). Use white wall, clear bottom assay plates (Costar #3570) and incubate overnight at 37° C., 5% CO2. • 2. 0.25 μL 120× test compound (final DMSO concentration should be <1%) was added to each well n=2, 10 point titrations starting at 36.7 μM final concentration. • 3. 5 μL 6× agonist (final aldosterone concentration should be about 0.3 nM to about 1.0 nM) was added to all wells using the PlateMate Plus.
# (ThermoFisher) (except those wells in columns 23 and 24) • 4. 5 μL of assay media was added to all wells in column 23 and 24. • 5. Plates were incubated 6 hrs at 37° C., 5% CO2. • 6. 15 μL 3× DiscoveRx detection reagent was added to each well. • 7. Plates were incubated for 1 hour at room temperature (plates stored in the dark). • 8. Plates were read on Envision (PerkinElmer) luminesence plate reader and analyzed using ADA. LC/MS method: (LC2M_Low/Med_Positive mode). LC Conditions: 5-98% CH3CN/H2O+v 0.1% TFA over 1.25 min; Flow Rate=1.5 mL/min, UV wavelength 254 nm; Column: Waters XTerra® MS C18 3.5 μm 2.1×20 mm IS™
row,IC50,SMILES
1,500 to 4500 nM,"C[C@H](c1ccccc1)N1C(=O)N[C@](Cc2ccccc2)(C(=O)N2CCc3ccccc3C2)C1=O (single isomer, unassigned) [Compound 23]"
2,< 100 nM,"COc1cc(CNC(=O)[C@@]2(Cc3ccccc3)OC(=O)N([C@H](C)c3ccccc3)C2=O)cc(OC)c1 [Compound 1, (5R)-Benzyl-N-(3,5-dimethoxybenzyl)-2,4-dioxo-3-[(1R)-1-phenylethyl]-1,3-oxazolidine-5-carboxamide]"
3,100 to 500 nM,"C[C@H](c1ccc(F)cc1)N1C(=O)O[C@](Cc2ccc(F)cc2)(C(=O)NCc2ccc(Cl)c(Cl)c2)C1=O [Compound 2, (5R)-N-(3,4-Dichlorobenzyl)-5-(4-fluorobenzyl)-3-[(1R)-1-(4-fluorophenyl)ethyl]-2,4-dioxo-1,3-oxazolidine-5-carboxamide]"
4,100 to 500 nM,"COc1cc(CNC(=O)[C@@]2(Cc3ccc(F)cc3)OC(=O)N([C@H](C)c3ccccc3)C2=O)cc(OC)c1 [Compound 3, (5R)-N-(3,5-Dimethoxybenzyl)-5-(4-fluorobenzyl)-2,4-dioxo-3-[(1R)-1-phenylethyl]-1,3-oxazolidine-5-carboxamide]"
5,100 to 500 nM,"C[C@H](c1ccccc1)N1C(=O)O[C@](Cc2ccccc2)(C(=O)N[C@H]2C[C@H](c3ccccc3)C2)C1=O [Compound 4, (5R)-5-Benzyl-2,4-dioxo-N-(trans-3-phenylcyclobutyl)-3-[(1R)-1-phenylethyl]-1,3-oxazolidine-5-carboxamide]"
6,500 to 4500 nM,"COc1cc(CNC(=O)C2(Cc3cccc(Cl)c3)OC(=O)N([C@H](C)c3ccccc3)C2=O)cc(OC)c1 (stereo partly drawn) [Compound 5, 5-(3-Chlorobenzyl)-N-(3,5-dimethoxybenzyl)-2,4-dioxo-3-[(1R)-1-phenylethyl]-1,3-oxazolidine-5-carboxamide]"
7,100 to 500 nM,"COc1cc(CNC(=O)[C@@]2(Cc3ccccc3)OC(=O)N(C(C)C)C2=O)cc(OC)c1 [Compound 6, (5R)-5-Benzyl-N-(3,5-dimethoxybenzyl)-3-(1-methylethyl)-2,4-dioxo-1,3-oxazolidine-5-carboxamide]"
8,100 to 500 nM,"COc1cc(CNC(=O)[C@@]2(Cc3ccccc3)OC(=O)N(C3CCCc4ccccc43)C2=O)cc(OC)c1 (stereo partly drawn) [Compound 7, (5R)-5-Benzyl-N-(3,5-dimethoxybenzyl)-2,4-dioxo-3-(1,2,3,4-tetrahydronaphthalen-1-yl)-1,3-oxazolidine-5-carboxamide]"
9,< 100 nM,"COc1cc(CNC(=O)[C@@]2(Cc3ccccc3)OC(=O)N([C@H](C)c3ccc(F)cc3)C2=O)cc(OC)c1 [Compound 8, (5R)-5-Benzyl-N-(3,5-dimethoxybenzyl)-3-[(1R)-1-(4-fluorophenyl)ethyl]-2,4-dioxo-1,3-oxazolidine-5-carboxamide]"
10,< 100 nM,"COc1cc(CNC(=O)[C@@]2(Cc3ccccc3)OC(=O)N([C@H](C)c3ccc(Cl)cc3)C2=O)cc(OC)c1 [Compound 9, (5R)-5-Benzyl-3-[(1R)-1-(4-chlorophenyl)ethyl]-N-(3,5-dimethoxybenzyl)-2,4-dioxo-1,3-oxazolidine-5-carboxamide]"
11,< 100 nM,"COc1cc(CNC(=O)[C@@]2(Cc3ccccc3)OC(=O)N([C@H](C)C3CCCCC3)C2=O)cc(OC)c1 [Compound 10, (5R)-5-Benzyl-3-[(1R)-1-cyclohexylethyl]-N-(3,5-dimethoxybenzyl)-2,4-dioxo-1,3-oxazolidine-5-carboxamide]"
12,< 100 nM,"COc1cc(CNC(=O)[C@@]2(Cc3ccccc3)OC(=O)N([C@@H]3CCc4ccccc43)C2=O)cc(OC)c1 [Compound 11, (5R)-5-Benzyl-3-[(1R)-2,3-dihydro-1H-inden-1-yl]-N-(3,5-dimethoxybenzyl)-2,4-dioxo-1,3-oxazolidine-5-carboxamide]"
13,100 to 500 nM,"C[C@H](c1ccc(F)cc1)N1C(=O)O[C@](Cc2ccccc2)(C(=O)Nc2cccc(F)c2)C1=O [Compound 13, (5R)-5-Benzyl-N-(3-fluorophenyl)-3-[(1R)-1-(4-fluorophenyl)ethyl]-2,4-dioxo-1,3-oxazolidine-5-carboxamide]"
